Laboratory results from ChEMBL document CHEMBL1143780, “Towards erythropoietin mimicking small molecules” (Bioorg Med Chem Lett, 2007).
The source made the active and inactive calls. The calls are words filed in the database; no cut-off is given here.

Tests used:
BaF3 [1] = assay: Effect on proliferation in wild type BaF3 cells; assay type: functional, cell-based; settings: Homo sapiens
BaF3 [2] = assay: Effect on proliferation in BaF3 EPOr cells; assay type: functional, cell-based; settings: Homo sapiens

Question: For COc1ccc(C(=O)/C=C/c2ccc(N3C[C@H](CNC(C)=O)OC3=O)cc2)cc1, which Activity (BaF3 [1]) is on record?
Answer: Its Activity is “Active”.

Question: What about the Activity (BaF3 [2]) of the same compound?
Answer: Its Activity is “Active”.
